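Exposure lasted 48 hours, with cells grown in 96-well plates and compounds tested at five concentrations. GI50 = concentration required for 50% inhibition of growth.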 The source made the active and inactive calls. Rule as the data show it: active = GI50 up to about 1.1 µM and inactive = higher.
How the values were obtained:
Assay in all cases: NCI tumour cell line growth inhibition, 48 h
K562 = system: K562
EKVX = system: EKVX
UACC-62 = system: UACC-62
OVCAR-5 = system: OVCAR-5
786-0 = system: 786-0
XF498 = system: XF498
UO-31 = system: UO-31
KM-20L2 = system: KM-20L2
MOLT-4 = system: MOLT-4
DLD-1 = system: DLD-1
SN12C = system: SN12C
HCT-15 = system: HCT-15
SW-620 = system: SW-620
HL-60 = system: HL-60
SK-MEL-5 = system: SK-MEL-5
SK-OV-3 = system: SK-OV-3
LOX IMVI = system: LOX IMVI
DMS-273 = system: DMS-273
Malme-3M = system: Malme-3M
OVCAR-8 = system: OVCAR-8
NCI-H23 = system: NCI-H23
SNB-19 = system: SNB-19
U-251 = system: U-251
ACHN = system: ACHN
NCI-H226 = system: NCI-H226
SF-295 = system: SF-295
UACC-257 = system: UACC-257
SK-MEL-2 = system: SK-MEL-2
SK-MEL-28 = system: SK-MEL-28
TK-10 = system: TK-10
OVCAR-3 = system: OVCAR-3
DMS-114 = system: DMS-114
KM12 = system: KM12
RXF 631 = system: RXF 631
M19-MEL = system: M19-MEL
HT-29 = system: HT-29
SF-268 = system: SF-268
CCRF-CEM = system: CCRF-CEM
A549 = system: A549
NCI-H460 = system: NCI-H460
HCC 2998 = system: HCC 2998
NCI-H522 = system: NCI-H522
HCT-116 = system: HCT-116
HOP-62 = system: HOP-62
SF-539 = system: SF-539
IGROV-1 = system: IGROV-1
RXF 393 = system: RXF 393
A498 = system: A498
COLO 205 = system: COLO 205
OVCAR-4 = system: OVCAR-4
HOP-92 = system: HOP-92
RPMI-8226 = system: RPMI-8226
LXFL 529 = system: LXFL 529
CAKI-1 = system: CAKI-1
SNB-78 = system: SNB-78
M14 = system: M14
SNB-75 = system: SNB-75

Sc1nnc(C(c2ccccc2)c2ccccc2)[nH]1
GI50 (K562): > 100 µM (inactive)
GI50 (EKVX): > 100 µM (inactive)
GI50 (UACC-62): > 100 µM (inactive)
GI50 (OVCAR-5): > 100 µM (inactive)
GI50 (786-0): > 100 µM (inactive)
GI50 (XF498): > 100 µM (inactive)
GI50 (UO-31): > 100 µM (inactive)
GI50 (KM-20L2): > 100 µM (inactive)
GI50 (MOLT-4): > 100 µM (inactive)
GI50 (DLD-1): > 100 µM (inactive)
GI50 (SN12C): > 100 µM (inactive)
GI50 (HCT-15): > 100 µM
GI50 (SW-620): > 100 µM (inactive)
GI50 (HL-60): > 100 µM (inactive)
GI50 (SK-MEL-5): > 100 µM (inactive)
GI50 (SK-OV-3): > 100 µM (inactive)
GI50 (LOX IMVI): > 100 µM (inactive)
GI50 (DMS-273): > 100 µM (inactive)
GI50 (Malme-3M): > 100 µM (inactive)
GI50 (OVCAR-8): > 100 µM (inactive)
GI50 (NCI-H23): > 100 µM (inactive)
GI50 (SNB-19): > 100 µM (inactive)
GI50 (U-251): > 100 µM (inactive)
GI50 (ACHN): > 100 µM (inactive)
GI50 (NCI-H226): > 100 µM (inactive)
GI50 (SF-295): > 100 µM (inactive)
GI50 (UACC-257): > 100 µM (inactive)
GI50 (SK-MEL-2): > 100 µM (inactive)
GI50 (SK-MEL-28): > 100 µM (inactive)
GI50 (TK-10): > 100 µM (inactive)
GI50 (OVCAR-3): > 100 µM (inactive)
GI50 (DMS-114): > 100 µM (inactive)
GI50 (KM12): > 100 µM (inactive)
GI50 (RXF 631): > 100 µM (inactive)
GI50 (M19-MEL): > 100 µM (inactive)
GI50 (HT-29): > 100 µM (inactive)
GI50 (SF-268): > 100 µM (inactive)
GI50 (CCRF-CEM): > 100 µM (inactive)
GI50 (A549): > 100 µM (inactive)
GI50 (NCI-H460): > 100 µM (inactive)
GI50 (HCC 2998): > 100 µM (inactive)
GI50 (NCI-H522): 53.2 µM (inactive)
GI50 (HCT-116): > 100 µM (inactive)
GI50 (HOP-62): > 100 µM (inactive)
GI50 (SF-539): > 100 µM (inactive)
GI50 (IGROV-1): > 100 µM (inactive)
GI50 (RXF 393): > 100 µM (inactive)
GI50 (A498): > 100 µM (inactive)
GI50 (COLO 205): > 100 µM (inactive)

c1ccc(C2Nc3ccccc3C3OCCCC23)cc1 (configuration not stated)
GI50 (K562): 14.6 µM (inactive)
GI50 (EKVX): 20.9 µM (inactive)
GI50 (UACC-62): 11.6 µM (inactive)
GI50 (OVCAR-5): 38.7 µM (inactive)
GI50 (786-0): 27.6 µM (inactive)
GI50 (XF498): 56.5 µM (inactive)
GI50 (UO-31): 27 µM (inactive)
GI50 (KM-20L2): 18.4 µM (inactive)
GI50 (OVCAR-4): 47.3 µM (inactive)
GI50 (MOLT-4): 24.9 µM (inactive)
GI50 (HOP-92): 26.4 µM (inactive)
GI50 (DLD-1): 18.9 µM (inactive)
GI50 (SN12C): 38.5 µM (inactive)
GI50 (HCT-15): 27 µM
GI50 (SW-620): 26 µM (inactive)
GI50 (HL-60): 24.7 µM (inactive)
GI50 (SK-MEL-5): 5.06 µM (inactive)
GI50 (RPMI-8226): 20.1 µM (inactive)
GI50 (LOX IMVI): 12.8 µM (inactive)
GI50 (DMS-273): 28.2 µM (inactive)
GI50 (Malme-3M): 30.7 µM (inactive)
GI50 (OVCAR-8): 17.5 µM (inactive)
GI50 (LXFL 529): 7.78 µM (inactive)
GI50 (CAKI-1): 2.47 µM (inactive)
GI50 (NCI-H23): 32.8 µM (inactive)
GI50 (SNB-19): 31.3 µM (inactive)
GI50 (SNB-78): 23.9 µM (inactive)
GI50 (U-251): 17.8 µM (inactive)
GI50 (ACHN): 11.3 µM (inactive)
GI50 (NCI-H226): 14.8 µM (inactive)
GI50 (SF-295): 16.6 µM (inactive)
GI50 (UACC-257): 30.9 µM (inactive)
GI50 (SK-MEL-2): 30.7 µM (inactive)
GI50 (DMS-114): 21.1 µM (inactive)
GI50 (KM12): 25.1 µM (inactive)
GI50 (RXF 631): 35.7 µM (inactive)
GI50 (M19-MEL): 42.6 µM (inactive)
GI50 (HT-29): > 10 µM (inactive)
GI50 (SF-268): 25.6 µM (inactive)
GI50 (CCRF-CEM): 20.2 µM (inactive)
GI50 (A549): 20.5 µM (inactive)
GI50 (NCI-H460): > 10 µM (inactive)
GI50 (HCC 2998): 35.8 µM (inactive)
GI50 (HCT-116): 17.6 µM (inactive)
GI50 (SF-539): 16.1 µM (inactive)
GI50 (IGROV-1): 11.8 µM (inactive)
GI50 (RXF 393): 18.7 µM (inactive)
GI50 (A498): 21.2 µM (inactive)
GI50 (COLO 205): 35.4 µM (inactive)

O=C(CC1(O)C(=O)Nc2ccccc21)c1ccc2ccccc2c1 (configuration not stated)
GI50 (K562): > 100 µM (inactive)
GI50 (EKVX): > 100 µM (inactive)
GI50 (UACC-62): > 100 µM (inactive)
GI50 (OVCAR-5): > 100 µM (inactive)
GI50 (786-0): > 100 µM (inactive)
GI50 (XF498): 93.8 µM (inactive)
GI50 (UO-31): 44.7 µM (inactive)
GI50 (KM-20L2): > 100 µM (inactive)
GI50 (OVCAR-4): > 100 µM (inactive)
GI50 (MOLT-4): > 100 µM (inactive)
GI50 (M14): > 100 µM (inactive)
GI50 (HOP-92): > 100 µM (inactive)
GI50 (DLD-1): > 100 µM (inactive)
GI50 (SN12C): > 100 µM (inactive)
GI50 (HCT-15): > 100 µM
GI50 (SW-620): > 100 µM (inactive)
GI50 (HL-60): > 100 µM (inactive)
GI50 (SK-MEL-5): > 100 µM (inactive)
GI50 (SNB-75): 78 µM (inactive)
GI50 (RPMI-8226): > 100 µM (inactive)
GI50 (SK-OV-3): > 100 µM (inactive)
GI50 (LOX IMVI): > 100 µM (inactive)
GI50 (DMS-273): > 100 µM (inactive)
GI50 (Malme-3M): > 100 µM (inactive)
GI50 (OVCAR-8): > 100 µM (inactive)
GI50 (LXFL 529): > 100 µM (inactive)
GI50 (CAKI-1): > 100 µM (inactive)
GI50 (NCI-H23): > 100 µM (inactive)
GI50 (SNB-19): > 100 µM (inactive)
GI50 (SNB-78): > 100 µM (inactive)
GI50 (ACHN): > 100 µM (inactive)
GI50 (NCI-H226): 29.2 µM (inactive)
GI50 (SF-295): > 100 µM (inactive)
GI50 (UACC-257): > 100 µM (inactive)
GI50 (SK-MEL-2): > 100 µM (inactive)
GI50 (SK-MEL-28): > 100 µM (inactive)
GI50 (TK-10): > 100 µM (inactive)
GI50 (OVCAR-3): > 100 µM (inactive)
GI50 (DMS-114): > 100 µM (inactive)
GI50 (RXF 631): > 100 µM (inactive)
GI50 (M19-MEL): > 100 µM (inactive)
GI50 (HT-29): > 100 µM (inactive)
GI50 (SF-268): > 100 µM (inactive)
GI50 (A549): > 100 µM (inactive)
GI50 (NCI-H460): > 100 µM (inactive)
GI50 (HCC 2998): > 100 µM (inactive)
GI50 (NCI-H522): 99.5 µM (inactive)
GI50 (HCT-116): > 100 µM (inactive)
GI50 (HOP-62): > 100 µM (inactive)
GI50 (SF-539): > 100 µM (inactive)
GI50 (IGROV-1): > 100 µM (inactive)
GI50 (RXF 393): > 100 µM (inactive)
GI50 (A498): > 100 µM (inactive)
GI50 (COLO 205): > 100 µM (inactive)

Source: ChEMBL document CHEMBL1201862, “PubChem BioAssay data set” (2004)
